Test results taken from patent publication US12063929B2, “3′-alkynyl abscisic acid derivatives as ABA antagonists” (University of Saskatchewan, priority 2018, dated 2024).

Columns and labels:
[1] = tested on: ABA-inducible promoter of the MKKK18 gene (GUS reporter); experiment: ABA-inducible gene expression, MKKK18GUS reporter plants; assay type: in vivo, Arabidopsis; set-up: antagonist effect, GUS staining: dose or concentration left out as unconfirmed
Protocol: Transgenic MKKK18GUS Arabidopsis plants harbor an […] (GUS) reporter gene fused to an ABA-inducible promoter of the MKKK18 gene (Okamoto et al. 2013). Six-day-old MKKK18GUS plants were treated with ABA1019 alone or both ABA1019 and ABA for 6 hours. Plants were then stained with 5-bromo-4-chloro-3-indolyl-beta-D-glucuronic acid cyclohexyl ammonium salt (X-Glc) for 14 hours, and destained with 70% ethanol.

rice = experiment: Rice radical elongation assay; assay type: in vivo; settings: 10 μM 1019 alone, 4.5 days post treatment (FIG. 11A)
Protocol: Seeds were surface sterilized by incubation in 10% bleach for 20 min with shaking, then rinsed four times with sterile water. Four ml of test solutions were pipetted into petri dishes (100×15 mm) that contain a single filter paper. Fifteen seeds were added to each dish. For rice, barely, and wheat, the experiment involved five treatments (5 μM ABA; 5 μM ABA+10 μM 1019; 10 μM 1019; water control; water+EtOH+NaOH control), with three replications per treatment. For sorghum, treatments were 10 μM ABA; 10 μM ABA+20 μM 1019; 20 μM 1019; water control; water+EtOH+NaOH control. Dishes were sealed with Parafilm, and incubated in the dark at room temperature. Radical length was measured daily post emergence using ImageJ software; shown are 3 days post treatment for barley, wheat and sorghum and 4.5 days post treatment for rice.

[2] = tested on: Canola seed (Nutrien PV200); experiment: Canola seed germination assay; assay type: in vivo
Protocol: For each treatment 6 replicates of 40 seeds were plated into petri dishes lined with two filter papers and 10 mL of test solution. The covered dishes were stored at room temperature in the dark. Germinated seeds were counted every 2 days for 8 days. The following dosages were used when studying the effect of exemplary compounds on canola germination: control 1% DMSO. 10 μM ABA, 100 μM 1019, and 100 μM 1019 plus 10 μM ABA.

Botrytis cinerea = experiment: Pathogenicity test on detached Arabidopsis thaliana leaves; assay type: in vivo
faba bean = experiment: Faba bean seed germination and flowering; assay type: in vivo; settings: 10 μM compound
Excerpt: (§1) Fifty four lentil genotypes were selected for the experiment based on the existing data on the number of days it takes them to emerge and days to flowering. The seeds of each genotype were scarified before sowing and subjected to 3 treatments. VWR 415 9 cm filter papers were placed inside VWR 100 mm plastic petri dishes. Each petri dish was labeled on both the top and the bottom. Ten seed from each line was place in a labelled petri dish. Each lentil or faba bean genotype was replicated 3 times and subjected to 3 treatments (total number of experimental petri dishes=531). Thus: • 1. ABA exemplary compound solution [10 μM exemplary ABA analog compound 1019 in 1% DMSO, 99% H2O (LL10.1014.1) NaSaH (SL-1-16-1-53)] • 2. No exemplary ABA analogue solution (1% DMSO, 99% H2O) • 3. Distilled water—control
Seven milliliters of either exemplary ABA analogue solution, solution with no exemplary ABA analogue or distill water (control) was added into the corresponding labelled petri dishes containing the 10 scarified lentil seeds. For faba, bean, 10 ml because of their large seed size. The petri dishes were placed in a dark cupboard. […]
Germination was considered for a seed when a tiny radicle at least 5 mm or greater had emerged from the seed. The number of seeds that germinated was counted and recorded at 48 and 96 hours; and at 7 days. […]

[3] = tested on: wild and RIL lentil genotypes; experiment: Seed germination in wild and RIL populations of lentil genotypes; assay type: in vivo, lentil (L. orientalis, L. nigricans and others)
Excerpt: as §1
Seven milliliters of either exemplary ABA analogue solution, solution with no exemplary ABA analogue or distill water (control) was added into the corresponding labelled petri dishes containing the 10 scarified lentil seeds. For faba, bean, 10 ml because of their large seed size. The petri dishes were placed in a dark cupboard. Two digital temperature and humidity loggers (Tinytag) were placed inside the cupboards to monitor environmental conditions.
Germination was considered for a seed when a tiny radicle at least 5 mm or greater had emerged from the seed. The number of seeds that germinated was counted and recorded at 48 and 96 hours; and at 7 days. Some of the genotypes of interest were photographed (AF-S Micro NIKKOR 60 mm 1:2.8G camera) for comparison purpose. However, an excel sheet showing all results is available. At 48 hours, a total of 22 genotypes and their replicates were selected from the petri dishes treated with exemplary compound and distilled water were transplanted into pots (for faba bean) and trays (for lentils) in order to assess the length of time they took to flower while the rest of the petri dishes were kept till the end of the experiment that lasted a week.
The average temperature in the cupboards was 22.5° C. (±0.3) while the relative humidity ranged from 52.4 to 80.7 percent for the duration of the experiment. Studies carried out by Linda Gorim and Devini De. Silva, University of Saskatchewan

Lentil (CDC Maxim) = Lentil (CDC Maxim) seed germination assay; assay type: in vivo
Protocol: 40 seeds were counted for each 100×15 mm petri dishes. Each petri dish contained two filter papers and 10 mL of test solutions. Then, they were wrapped with aluminium foil to cut off light. Wrapped plates were kept on lab bench at room temperature. Germinated seeds were counted everyday until one treatment reaches 100% germination (two days). Only light exposure was during plate counting. […]
All seeds from this experiment have been rinsed first with tap water and then with dH2O, frozen in liquid nitrogen and stored at −80° C. freezer.

With `CC1=C(C#Cc2ccccc2)C(=O)CC(C)(C)[C@@]1(O)/C=C/C(C)=C\C(=O)O` [Compound 1019, (2Z,4E)-5-((S)-1-Hydroxy-2,6,6-trimethyl-4-oxo-3-(phenylethynyl)cyclohex-2-en-1-yl)-3-methylpenta-2,4-dienoic acid] the “agonist activity, GUS staining” value ([1]; 2.5 μM applied alone, 6 hours) was “weak agonist activity”, the “GUS staining compared to ABA alone” value ([1]; 1:1 ratio with ABA) was “a reduction in the GUS staining” and the “antagonist effect, GUS staining” value ([1]; co-applied with ABA, dose dependent) was “potent antagonist effect”. The “GUS staining compared to ABA alone” value ([1]; ratio of compound to ABA 10:1) was “abolition of the ABA GUS stain”, the “radical length (Least Square mean); radical elongation” value (rice) was 1.036 and the canola seed germination ([2]; 100 μM compound alone, compared to control) was “did not significantly affect”. The canola seed germination ([2]; 100 μM compound plus 10 μM ABA) was “restored to near control levels”, the disease lesions (Botrytis cinerea; 100 μM spray, 24 hours post inoculation (FIG. 14)) was “smaller lesions” and the “disease development caused by B. cinerea” value (Botrytis cinerea; 100 μM spray, preliminary results) was “partially inhibits”. For the same compound, the symptom development (Botrytis cinerea; plants sprayed with 100 μM, versus mock control) was “slower”, the germination rates (faba bean) was “no significant effect” and the days to flowering (faba bean; transplanted at 48 hours) was “nor did it significantly affect”. The germination ([3]; L. nigricans IG-72551 seeds, at 2 days, 10 μM compound) was 100%, the germination ([3]; L. orientalis IG72770, day 2, 10 μM compound) was 40% and the germination ([3]; L. orientalis IG72770, day 3, 10 μM compound) was 75%. For the same compound, the germination ([3]; L. orientalis IG72770, day 4, 10 μM compound) was 100%, the “germination uniformity between replicates” value ([3]; all genotypes that responded, 10 μM compound) was “eliminated the variable germination rates” and the days to flowering ([3]; lentil, transplanted at 48 hours, 10 μM compound) was “nor did it significantly affect”. For the same compound, the “number of lentil genotypes that responded positively (improved germination rate)” value ([3]; of 54 lentil genotypes screened, over 4 days, 10 μM compound) was 18, the “lentil seed germination, antagonism of ABA” value (Lentil (CDC Maxim); 10 μM ABA plus 10 μM compound (FIG. 6C)) was “strongest antagonist” and the lentil seed germination (Lentil (CDC Maxim); 10 μM compound and 10 μM compound plus 10 μM ABA (FIG. 5)) was “promoted”. For the same compound, the lentil seed germination (Lentil (CDC Maxim); 100 μM compound plus 10 μM ABA (FIG. 6B)) was “overcame the effect”.
